# According to US6277825A (priority 1999, dated 2001):
# Several values for one entry are separate records, joined by “and”; a condition that tells them apart may be missing. Equal entries are not always repeated. Where two headings read alike, the source gives them in different places. Where no end group is shown, it is not given here. [ ]: non-standard residue; d: D form. Gla = N[C@@H](CC(C(=O)O)C(=O)O)C(=O)O
# Experiments:
# [1] = test system: Frings audiogenic seizure-susceptible mice; conditions: mouse, in vivo
# [2] = test system: Frings audiogenic seizure susceptible mice; type: in vivo; conditions: for ED50: mouse, in vivo
# [3] = test system: young (<2 weeks old) mice; type: in vivo
# [4] = test system: young (<2 weeks old) mice; type: in vivo; remark: listed apart in the source
# [5] = 37° C.; 50 μg/ml
# [6] = test system: young (<2 weeks old) mice; type: in vivo; remark: listed apart in the source
# [7] = test system: CF No. 1 mice; conditions: mouse, in vivo
compound,measurement,setting,value
"NC(=O)OCC(COC(N)=O)c1ccccc1 [Felbamate, reference compound]","TD50 (rotorod performance, minimal motor impairment)",[1],> 630 nmol
same,animals protected,[2]; 30 min,5/8 and 4/8
"CC(C(O)c1ccc(O)cc1)N1CCC(Cc2ccccc2)CC1 (centres unmarked) [Ifenprodil, reference compound]",P.I. (TD50/ED50),[1],< 1
same,TD50,[1],< 25
same,ED50,[2],~ 25 nmols
"Nc1nnc(-c2cccc(Cl)c2Cl)c(N)n1 [Lamotrigine, reference compound]",PI (TD50/ED50),[1],> 2.0
same,"TD50 (rotorod performance, minimal motor impairment)",[1],> 290 nmol
same,ED50,[2],146 nmol
"CCC1(c2ccccc2)C(=O)NC(=O)NC1=O [Phenobarbitol, reference compound]",PI (TD50/ED50),[1],0.5
same,"TD50 (rotorod performance, minimal motor impairment)",[1],68.8 nmol
"CC1(C)O[C@@H]2[C@@H](CO[C@@]3(COS(N)(=O)=O)OC(C)(C)O[C@@H]23)O1 [Topiramate, reference compound]","TD50 (rotorod performance, minimal motor impairment)",[1],no marked
same,ED50,[2],> 150 nmol
"CCCC(CCC)C(=O)O [Valproic Acid, reference compound]",PI (TD50/ED50),[1],1.1-2.2
same,ED50,[2],566 nmol
Conantokin T (GE[Gla][Gla]YQKML[Gla]NLR[Gla]AEVKKNA-NH2; N-terminus assumed; SMILES CSCC[C@H](NC(=O)[C@H](CCCCN)NC(=O)[C@H](CCC(N)=O)NC(=O)[C@H](Cc1ccc(O)cc1)NC(=O)[C@H](CC(C(=O)O)C(=O)O)NC(=O)[C@H](CC(C(=O)O)C(=O)O)NC(=O)[C@H](CCC(=O)O)NC(=O)CN)C(=O)N[C@@H](CC(C)C)C(=O)N[C@@H](CC(C(=O)O)C(=O)O)C(=O)N[C@@H](CC(N)=O)C(=O)N[C@@H](CC(C)C)C(=O)N[C@@H](CCCNC(=N)N)C(=O)N[C@@H](CC(C(=O)O)C(=O)O)C(=O)N[C@@H](C)C(=O)N[C@@H](CCC(=O)O)C(=O)N[C@H](C(=O)N[C@@H](CCCCN)C(=O)N[C@@H](CCCCN)C(=O)N[C@@H](CC(N)=O)C(=O)N[C@@H](C)C(N)=O)C(C)C) [Con T],"Sleepy Test, positive mice/tested",[3]; 30 min,4/4
same,"Sleepy Test, positive mice/tested",[3]; 60 min,4/4
same,"Righting Reflex, mice that lost reflex/tested",[4]; 30 min,2/4
same,"Righting Reflex, mice that lost reflex/tested",[4]; 60 min,2/4
same,stability in biological media,[5],stable in all biological media for up to 4 hours
same,"Catalepsy Test, positive mice/tested",[6]; 30 min,3/4
same,"Catalepsy Test, positive mice/tested",[6]; 60 min,1/4
same,anticonvulsant activity,[7],anticonvulsant activity
same,P.I. (TD50/ED50),[1],13
same,TD50,[1],0.228 nmols
same,behavioral toxicity (rotorod test),[1],No animals exhibited behavioral toxicity
same,#Protected/#Tested,[2]; 10 min,0/9
same,% Protected,[2]; 10 min,0%
same,#Protected/#Tested,[2]; 20 min,1/2
same,% Protected,[2]; 20 min,50%
same,#Protected/#Tested,[2]; 30 min,2/6
same,% Protected,[2]; 30 min,33%
same,#Protected/#Tested,[2]; 60 min,4/6
same,% Protected,[2]; 60 min,67%
same,#Protected/#Tested,[2]; 240 min,1/6
same,% Protected,[2]; 240 min,17%
